Experiments:
[1] = biological target: FTase (Homo sapiens, UniProt P49356); settings: cited from earlier work
[2] = biological target: T1, hERG channel (Homo sapiens, UniProt Q12809); assay: hERG channel assay; assay type: cell-based; settings: CHO cell line expressing hERG, whole cell recordings
T1 construct: host or cells: CHO (Chinese Hamster Ovary), stably transfected
Description: The most common mechanism for these adverse events is the inhibition of one or more cardiac potassium channels, in particular hERG. This current is important for cardiac myocyte repolarization and is a common target for drugs that prolong the QT interval. Test articles in this study were therefore characterized to determine their ability to inhibit the hERG channel. Ion channel activity was measured using a stably transfected Chinese Hamster Ovary (CHO) cell line expressing the hERG mRNA. The pharmacology of this cloned channel expressed in the CHO cell line is very similar to that observed in native tissue.
Cells: AVIVA's CHO cell line, which stably expresses hERG channels, was used for the study. Cells were cultured in DMEM/F12 containing 10% FBS, 1% penicillin/streptomycin and 500 μg/ml G418. Before testing, cells were harvested using Accumax (Innovative Cell Technologies).
Solutions: For electrophysiological recordings, the following solutions were used. External Solution: 2 mM CaCl2; 2 mM MgCl2; 4 mM KCl; 150 mM NaCl; 10 mM Glucose; 10 mM HEPES; 310-320 mOsm; pH 7.4 (adjusted with 1M NaOH). Internal Solution: 140 mM KCl; 10 mM MgCl2; 6 mM EGTA; 5 mM HEPESNa; […]; 300-320 mOsm; pH 7.25 (adjusted with 1M KOH).
Electrophysiology: Whole cell recordings were performed using PX 7000A (Axon Instruments) with VIVA's SealChip™ technology. Cells were voltage clamped at a holding potential of −80 mV. The hERG current was then activated by a depolarizing step to −50 mV for 300 ms. This first step at −50 mV was used as a baseline for measuring peak amplitude of the tail current. Next, a voltage step to +20 mV was applied for 5 s to activate the channels. Finally a step back to −50 mV for 5 seconds removed activation and the deactivating tail current was recorded.
Compound Handling and Dilutions: All compounds were prepared from either 10 or 30 mM DMSO stock solutions. Solutions were mixed by sonication for 20 min, followed by vigorous vortexing. Prior to testing, compounds were diluted to test concentrations in glass vials using External Solution. Dilutions were prepared no longer than 20 min prior to use. Equal amounts of DMSO (0.1%) were present in all final dilutions.
Electrophysiology Procedures: After achieving whole cell configuration, cells were monitored for 90 s to assess stability and then washed with External Solution for 66 s. The voltage protocol described above was then applied to the cells every 12 s throughout the procedure. Only stable cells with recording parameters above threshold (see Quality Control section) were allowed to enter the drug addition procedure. External solution containing 0.1% DMSO (vehicle) was applied to the cells to establish a baseline. After allowing the current to stabilize for 3 to 5 min, test articles were applied. Test article solutions were added to cells in 4 separate additions. Cells were kept in test solution until effect of the test article reached steady state, to a maximum of 12 min. Next, 1 μM cisapride (positive control) was added. Finally, washout with External Solution was performed until the recovery current reached a steady state.
Data Analysis: Data analysis was performed using DataXpress (Axon Instruments), Clampfit (Axon Instruments) and Origin (Originlab Corporation) software.

[3] = tested on: HCV genotype 1b; assay: HCV 1b replicon luciferase assay; assay type: cell-based; settings: Hepatitis C virus, Huh-7, 48 h, Table 1; Huh7 HCV 1b replicon, luciferase reporter, 48 hours; read-out: 1b EC50
Method in brief: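 Luminescence (Steady-Glo) served as the replication read-out after 48 h compound exposure of 1b replicon-luciferase Huh7 cells seeded at 10k/well. Dosing used 5-fold serial dilutions, 10 concentrations, top 25 μM final, 0.1% DMSO, duplicates.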

[4] = Liver microsome stability, rat; assay type: in vitro ADME, Sprague Dawley rat
From the text: (§1) Metabolic stability assays are designed to measure the stability of a test compound in a variety of assay matrices from human and animal species. From a metabolism perspective, a drug would be relatively stable, have a small first-pass effect, and maintain an effective concentration in blood for a reasonable period of time. A microsomal preparation from the liver contains all CYP isozymes and other membrane-bound drug metabolizing enzymes which are responsible for the metabolism for the majority of drugs in humans. Metabolic stability in liver microsomes can determine half-life (T1/2) and intrinsic clearance (Clint). The determination of Clint may be useful to determine whether metabolism is the major elimination pathway when it is compared to total body clearance in vivo. For high metabolic stability in liver microsomes: […] Human, Sprague Dawley rat, and CD-1 mouse liver microsome samples were purchased from BD Gentest. An in vitro metabolic stability assay suitable for use in predicting first pass metabolism of the compounds useful in the methods of the invention is described in this example. […] 6 mM NADPH in 0.1 M K-phosphate buffer is prepared by dissolving 25.1 mg of NADPH tetrasodium salt in 5 mL of K-phosphate buffer. […] The plate is pre-incubated at 37° C. for 10 minutes. 15 μL of NADPH stock solution (6 mM) is added to the wells designated for Time 60 and timed. At 30 min, 15 min, and 5 min, 15 μL of NADPH stock solution (6 mM) is added to the wells. At the end of incubation, 135 μL of ACN containing IS is added to all the wells (60 min, 30 min, 15 min, 5 min and 0 min). Then 15 μL of NADPH stock solution (6 mM) is added to the wells designated as Time 0.

[5] = Liver microsome stability, human; assay type: in vitro ADME
From the text: as §1

[6] = Liver microsome stability, mouse; assay type: in vitro ADME, CD-1 mouse
From the text: as §1

T1 sequence (Q12809 whole entry): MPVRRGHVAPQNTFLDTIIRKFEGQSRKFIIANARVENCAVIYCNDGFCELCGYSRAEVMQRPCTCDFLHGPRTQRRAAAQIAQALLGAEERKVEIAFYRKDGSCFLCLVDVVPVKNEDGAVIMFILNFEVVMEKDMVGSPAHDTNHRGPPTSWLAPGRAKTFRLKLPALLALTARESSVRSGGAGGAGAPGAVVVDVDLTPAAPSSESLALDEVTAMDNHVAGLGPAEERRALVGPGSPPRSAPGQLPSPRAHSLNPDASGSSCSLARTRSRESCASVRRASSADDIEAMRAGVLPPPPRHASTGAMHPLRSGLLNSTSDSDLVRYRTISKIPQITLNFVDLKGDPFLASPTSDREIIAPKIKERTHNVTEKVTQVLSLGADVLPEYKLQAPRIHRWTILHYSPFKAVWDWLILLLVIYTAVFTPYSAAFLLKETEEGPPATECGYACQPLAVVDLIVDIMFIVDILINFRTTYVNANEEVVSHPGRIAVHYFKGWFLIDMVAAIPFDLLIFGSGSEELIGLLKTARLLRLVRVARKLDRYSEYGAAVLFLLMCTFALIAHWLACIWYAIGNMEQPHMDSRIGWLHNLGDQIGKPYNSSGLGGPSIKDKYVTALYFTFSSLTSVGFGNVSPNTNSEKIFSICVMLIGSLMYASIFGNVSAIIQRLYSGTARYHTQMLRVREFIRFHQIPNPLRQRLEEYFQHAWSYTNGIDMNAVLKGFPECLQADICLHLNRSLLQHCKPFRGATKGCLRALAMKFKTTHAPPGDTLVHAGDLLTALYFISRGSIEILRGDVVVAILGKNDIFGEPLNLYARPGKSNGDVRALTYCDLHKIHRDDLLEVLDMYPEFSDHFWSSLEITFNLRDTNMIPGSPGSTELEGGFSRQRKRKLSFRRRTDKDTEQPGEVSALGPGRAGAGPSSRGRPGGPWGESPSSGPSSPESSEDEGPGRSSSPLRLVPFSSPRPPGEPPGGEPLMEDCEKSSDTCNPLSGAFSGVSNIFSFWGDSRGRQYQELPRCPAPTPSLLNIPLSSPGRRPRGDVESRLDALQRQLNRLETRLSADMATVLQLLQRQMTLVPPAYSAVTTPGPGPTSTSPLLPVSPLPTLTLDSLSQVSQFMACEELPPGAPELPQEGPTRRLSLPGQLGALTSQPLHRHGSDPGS

In the case of Cn1cncc1C(N)(c1ccc(Cl)cc1)c1ccc2c(c1)c(-c1cccc(Cl)c1)cc(=O)n2C (stereo not drawn) [Tipifarnib, 6-[Amino(4-chlorophenyl)-1-methyl-1H-imidazol-5-ylmethyl]-4-(3-chlorophenyl)-1-methyl-2(1H)-quinolinone], the IC50 [1] is given as 0.86 nM.

O=C(NC1CCNCC1)c1n[nH]c2nc(N3CCCCCC3)ccc12 [compound 655] showed an IC50 [2] of 1340 nM and an EC50 [3] of 2100 to 3500 nM.

In the case of Cn1nc(N)c2ccc(N3CCCCCC3)nc21 [compound 658], the IC50 [2] is reported as > 10000 nM and the EC50 [3] is reported as 400 to 2200 nM.

For Cn1nc(NC(=O)c2cccs2)c2ccc(N3CCCCCC3)nc21 [compound 659], the IC50 [2] was > 10000 nM and the EC50 [3] was 1800 to 4900 nM.

With O=C(Nc1n[nH]c2nc(N3CCCCCC3)ccc12)C1CCNCC1 [compound 680] the IC50 [2] was > 10000 nM and the EC50 [3] was 4100 nM.

For Cn1nc(C(=O)Nc2ccncc2)c2ccc(N3CCCCCC3)nc21 [compound 701], the IC50 [2] was > 10000 nM and the EC50 [3] was 1100 nM.

In the case of O=C(NCC1CCNCC1)c1n[nH]c2nc(N3CCCCCC3)ccc12 [compound 702], the IC50 [2] is reported as > 10000 nM and the EC50 [3] is reported as 3400 nM.

O=C(NCC1CCCNC1)c1n[nH]c2nc(N3CCCCCC3)ccc12 (stereo not drawn) [compound 703] gave an IC50 [2] of 8800 nM and an EC50 [3] of 2200 nM.

In the case of O=C(NC1CCNCC1)c1n[nH]c2nc(OC3CCCCC3)ccc12 [compound 729], the IC50 [2] is reported as > 10000 nM and the EC50 [3] is reported as 1800 nM.

In the case of CC(C)CN(C)c1ccc2c(C(=O)NC3CCNCC3)n[nH]c2n1 [compound 738], the IC50 [2] is reported as > 10000 nM and the EC50 [3] is reported as 2200 nM.

For O=C(NC1CCNCC1)c1n[nH]c2nc(O)ccc12 [compound 744], the IC50 [2] was > 10000 nM and the EC50 [3] was 1500 nM.

With O=C(Nc1nn(Cc2ccc(Cl)cc2)c2nc(N3CCCCCC3)ccc12)C1CCCNC1 (stereo not drawn) [compound 745] the IC50 [2] was > 10000 nM and the EC50 [3] was 3000 nM.

Work on CCC(CC)Oc1ccc2c(COCC3CCNCC3)nn(Cc3ccc(Cl)cc3)c2n1 [compound 756] yielded an IC50 ([2]; human, CHO cells stably expressing hERG, pH 7.4) of 10000 nM and an EC50 [3] of 2200 nM.

With Cn1nc(C(=O)NC2CCN(CC3CCCCC3)CC2)c2ccc(N3CCCCCC3)nc21 [compound 987] the IC50 [2] was 880 nM and the EC50 [3] was 550 nM.

In the case of CC1CCC(C)N1CCOCc1nn(C)c2nc(N3CCCCCC3)ccc12 (stereo not drawn) [compound 1540], the “rat liver microsome (RLM), % parent remaining” value ([4]; after 15 min) is reported as 17 % parent remaining, the “rat liver microsome (RLM), % parent remaining” value ([4]; after 30 min) is reported as 2 % parent remaining and the “rat liver microsome (RLM), % parent remaining” value ([4]; after 60 min) is reported as 4 % parent remaining. For the same molecule, the “human liver microsome (HLM, % parent remaining)” value ([5]; after 15 min) was 17 % parent remaining, the “human liver microsome (HLM, % parent remaining)” value ([5]; after 30 min) was 9 % parent remaining and the “human liver microsome (HLM, % parent remaining)” value ([5]; after 60 min) was 4 % parent remaining. For the same molecule, the “mouse liver microsome (MLM), % parent remaining” value ([6]; after 15 min) was 34 % parent remaining, the “mouse liver microsome (MLM), % parent remaining” value ([6]; after 30 min) was 18 % parent remaining and the “mouse liver microsome (MLM), % parent remaining” value ([6]; after 60 min) was 10 % parent remaining. The EC50 [3] was 2700 nM.

With CC1CCCCN1CCOCc1nn(C)c2nc(N3CCCCCC3)ccc12 (stereo not drawn) [compound 1549] the “rat liver microsome (RLM), % parent remaining” value ([4]; after 15 min) was 52 % parent remaining, the “rat liver microsome (RLM), % parent remaining” value ([4]; after 30 min) was 31 % parent remaining and the “rat liver microsome (RLM), % parent remaining” value ([4]; after 60 min) was 17 % parent remaining. The “human liver microsome (HLM, % parent remaining)” value ([5]; after 15 min) was 16 % parent remaining, the “human liver microsome (HLM, % parent remaining)” value ([5]; after 30 min) was 11 % parent remaining and the “human liver microsome (HLM, % parent remaining)” value ([5]; after 60 min) was 13 % parent remaining. For the same molecule, the “mouse liver microsome (MLM), % parent remaining” value ([6]; after 15 min) was 27 % parent remaining, the “mouse liver microsome (MLM), % parent remaining” value ([6]; after 30 min) was 17 % parent remaining and the “mouse liver microsome (MLM), % parent remaining” value ([6]; after 60 min) was 13 % parent remaining. The EC50 [3] was 4000 nM.

For Cn1nc(C(=O)NC2CCN(CCN3CCCCC3CO)CC2)c2ccc(N3CCCCCC3)nc21 (stereo not drawn) [compound 1559], the “rat liver microsome (RLM), % parent remaining” value ([4]; after 15 min) was 57 % parent remaining, the “rat liver microsome (RLM), % parent remaining” value ([4]; after 30 min) was 31 % parent remaining and the “rat liver microsome (RLM), % parent remaining” value ([4]; after 60 min) was 8 % parent remaining. For the same molecule, the “human liver microsome (HLM, % parent remaining)” value ([5]; after 15 min) was 65 % parent remaining, the “human liver microsome (HLM, % parent remaining)” value ([5]; after 30 min) was 32 % parent remaining and the “human liver microsome (HLM, % parent remaining)” value ([5]; after 60 min) was 7 % parent remaining. The “mouse liver microsome (MLM), % parent remaining” value ([6]; after 15 min) was 54 % parent remaining, the “mouse liver microsome (MLM), % parent remaining” value ([6]; after 30 min) was 27 % parent remaining and the “mouse liver microsome (MLM), % parent remaining” value ([6]; after 60 min) was 5 % parent remaining. The EC50 [3] was 1800 nM.

Reference: patent US20120232062A1, “AZAINDAZOLES TO TREAT FLAVIVIRIDAE VIRUS INFECTION” (EIGER BIOPHARMACEUTICALS, INC., priority 2009, published 2012)
